We go through 9 molecules from PubChem BioAssay (NCI).

Each structure is given as a SMILES string.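 Growth conditions: 96-well plates. Treatment: test compound, 48 hours, 5 concentrations. Analysis: linear interpolation between bracketing concentrations; unreached endpoints set to highest concentration. GI50 = concentration required for 50% inhibition of growth. TGI: concentration producing complete growth inhibition.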

Common to all, as to assay: inhibition of tumour cell growth, NCI panel, 48 h
Assay [1] relates to HOP-62 NSCLC.
In assay [2] the test system is SK-OV-3 ovarian.
In assay [3] the test system is MDA-MB-231 breast.
The test system of assay [4] is RPMI-8226 leukemia.
Assay [5] concerns COLO 205 colon.
Assay [6] deals with CAKI-1 renal.
The test system of assay [7] is K-562 leukemia.
The subject of assay [8] is RXF 393 renal.
Assay [9] concerns SK-MEL-5 melanoma.
Assay [10] concerns MCF7 breast.

`CN1CCN(CC(=O)N2c3cccc4cccc(c34)N(C(=O)CN3CCN(C)CC3)C2c2cn(-c3ccccc3)nc2-c2cccc([N+](=O)[O-])c2)CC1`: the GI50 in assay [1] is 2.02 µM; in assay [2], 2.11 µM; in assay [3], 1.84 µM; in [4], 1.76 µM; in assay [5] it was 1.84 µM; in assay [6], 1.83 µM. Further, the GI50 in assay [7] was 1.22 µM; in [8], 1.58 µM; in assay [9] it was 1.7 µM; in assay [10], 1.75 µM. In addition, the TGI in [1] was determined as 5.52 µM; in assay [2], 4.6 µM; in assay [3] it was 3.68 µM; in [4] it was 4.33 µM; in assay [5], 3.82 µM; in assay [6] it was 4.1 µM. Moreover, the TGI in assay [7] came out at 3.81 µM; in assay [8], 3.09 µM; in [9], 3.11 µM; in [10] it was 3.39 µM.

`O=C(O)CCSC(=S)Nc1ccc([N+](=O)[O-])cc1`: the TGI in [1] was greater than 100 µM; in assay [2], greater than 100 µM; in assay [3] it was greater than 100 µM; in assay [4], greater than 77.2 µM; in assay [5] it was greater than 100 µM; in [6] it was greater than 100 µM. In addition, the TGI in [7] is greater than 63 µM; in [8], greater than 100 µM; in assay [9], 34.5 µM; in assay [10], greater than 100 µM.

For the molecule `CC[CH2][Sn]([CH2]CC)([O]C(=O)Cc1ccc(F)cc1)[O][Sn]([CH2]CC)([CH2]CC)[O]C(=O)Cc1ccc(F)cc1`, the GI50 in assay [1] was 1.25 µM; in assay [2], 0.774 µM; in [3], 0.406 µM; in assay [4], 0.0382 µM; in assay [5] it was 0.266 µM; in assay [6], 0.11 µM. In addition, the GI50 was 0.0266 µM in assay [7], 0.0286 µM in assay [8], 0.472 µM in assay [9] and 0.105 µM in [10]. Moreover, the TGI was 2.69 µM in assay [1]; 2.11 µM in assay [2]; 1.76 µM in assay [3]; 0.857 µM in assay [5]; 0.481 µM in assay [6]; 1.81 µM in assay [7]. In addition, the TGI in assay [8] was 0.126 µM; in assay [9] it was 1.47 µM; in assay [10] it was 1.02 µM.

Consider `Cc1cc(N(CCOS(C)(=O)=O)CCOS(C)(=O)=O)ccc1C=Nc1ccc(-c2csc(-c3ccc(Br)cc3)n2)cc1`, for which the TGI was 26.4 µM in [1]; 15.6 µM in assay [2]; 39.2 µM in [3]; greater than 100 µM in assay [4]; 2.89 µM in [5]; 3.96 µM in assay [6]. For the same molecule, the TGI in assay [7] is greater than 97.1 µM; in assay [8], 6.55 µM; in [9] it was 34.1 µM; in assay [10] it was 43.8 µM.

For `Oc1c(CN2CCN(c3ccccc3F)CC2)cc(Br)c2cccnc12`, the GI50 in assay [1] is 0.596 µM; in [2] it was 1.45 µM; in [3], 0.902 µM; in assay [4] it was 0.791 µM; in assay [5], 16.1 µM; in assay [6], 0.376 µM. Further, the GI50 in assay [7] is 0.366 µM; in assay [8], 2.05 µM; in assay [9] it was 0.616 µM; in assay [10], 0.473 µM. For the same molecule, the TGI in assay [1] is 14.2 µM; in assay [2], 27.9 µM; in [3], 15.2 µM; in assay [4] it was 15.6 µM; in [5], 55 µM; in assay [6], 9.26 µM. The TGI in assay [7] was 19.6 µM; in assay [8] it was 19.1 µM; in assay [9], greater than 21.4 µM; in assay [10], 12.1 µM.

Consider `C[C@@H]1OCC2(CCN(c3cnc(Sc4ccnc(N)c4Cl)c(N)n3)CC2)[C@@H]1N`, for which the GI50 in [1] was 14.2 µM; in assay [2], 1.04 µM; in assay [3], greater than 100 µM; in [4] it was 37.6 µM; in assay [5], greater than 100 µM; in [6], 3.69 µM. In addition, the GI50 was 0.397 µM in [7], 3.46 µM in [8], greater than 93.3 µM in [9] and greater than 100 µM in assay [10]. Besides, the TGI in assay [1], in assay [2], in assay [3], in assay [4], in [5] and in assay [6] was greater than 100 µM each time. Besides, the TGI in assay [7] was greater than 100 µM; in assay [8], greater than 67.6 µM; in assay [9], greater than 100 µM; in assay [10], greater than 100 µM.

Regarding `CCCCCC/C=C1\CCC(CN(C)C)C1=O` (configuration not stated), the TGI in assay [1] amounted to 35.1 µM; in assay [2] it was 34.7 µM; in assay [3], 18 µM; in [4] it was 4.7 µM; in assay [5], 8.4 µM; in assay [6] it was 9.51 µM. Also, the TGI in assay [7] is 7.64 µM; in assay [8], 9.8 µM; in assay [9], 27.5 µM; in assay [10], 14.7 µM.

As to `Fc1cccc(-c2[nH]nc3nc(Nc4cccnc4)sc23)c1`, the GI50 was greater than 100 µM in assay [1]; greater than 100 µM in assay [2]; 35.2 µM in assay [3]; 5.79 µM in [4]; 3.3 µM in assay [5]; 3.72 µM in [6]. Moreover, the GI50 in [7] is 0.421 µM; in assay [8], 3.1 µM; in [9], 0.593 µM; in assay [10] it was 0.708 µM. For the same molecule, the TGI in assay [1], in [2], in [3], in assay [4], in [5] and in assay [6] was greater than 100 µM in each case. Also, the TGI in assay [7] was greater than 100 µM; in assay [8], greater than 100 µM; in assay [9], 23.9 µM; in assay [10], greater than 100 µM.

For `CC(CN)[C@@H]1CC[C@]2(CO)CC[C@]3(C)[C@H](CC[C@@H]4[C@@]5(C)CCC(N)C(C)(C)[C@@H]5CC[C@]43C)[C@@H]12` (some centres not stated), the GI50 in [1] was 1.84 µM; in assay [2], 1.86 µM; in assay [3], 1.5 µM; in assay [4], 2.06 µM; in assay [5], 1.91 µM; in assay [6] it was 1.63 µM. For the same molecule, the GI50 was 1.55 µM in [8], 1.67 µM in assay [9] and 1.57 µM in [10]. Further, the TGI was found to be 3.55 µM in [1]; 3.29 µM in assay [2]; 3.05 µM in assay [3]; 4.58 µM in assay [4]; 3.68 µM in assay [5]; 3.12 µM in [6]. Moreover, the figures for the TGI in assay [8], in [9] and in assay [10] were 3.07 µM, 3.08 µM and 3.52 µM, respectively.
